This note sets out measurements from US11976075B2, “Inhibitors of the MYST family of lysine acetyl transferases” (Isosterix, Inc., priority 2022, dated 2024).

In one test the target is T1, Recombinant KAT6A/MOZ (488-778) protein (Homo sapiens, UniProt Q92794).
T1 construct: Recombinant KAT6A/MOZ (488-778) protein (Active motif, Catalog #81223); purchased Active Motif 81223
T1 sequence (Q92794 488-778): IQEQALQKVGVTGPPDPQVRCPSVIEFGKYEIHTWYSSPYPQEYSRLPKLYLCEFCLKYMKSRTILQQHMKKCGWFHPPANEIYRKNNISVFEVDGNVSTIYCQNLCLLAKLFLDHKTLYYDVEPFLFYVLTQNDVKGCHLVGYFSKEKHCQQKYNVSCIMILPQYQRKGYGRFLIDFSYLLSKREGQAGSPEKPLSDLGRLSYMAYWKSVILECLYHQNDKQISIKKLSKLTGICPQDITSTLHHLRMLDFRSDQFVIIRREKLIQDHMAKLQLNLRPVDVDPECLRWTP
The experiment in a line: Kat6a AlphaLISA Inhibition Screening Assay. The test is classed as biochemical. The following applies: 10′ pre-incubation; Table 3; read-out: Kat6A Biochemical assay: IC50. The method in brief:
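Recombinant KAT6A (488-778), 25 nM, was preincubated with compound (10-point dose response) for 60 or 10 min. It then reacted 120 min at room temperature with 200 nM biotin-H3(1-21) peptide and 400 nM acetyl-CoA, pH 8.0, with 330 nM TSA present. Acetylation was detected by AlphaLISA (anti-acetyl-lysine acceptor, streptavidin donor beads).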
Background: Bead proximity is the source of the signal in Alpha formats.
As for `COc1cc(Cn2cccn2)cc2c1c(NS(=O)(=O)CC1CCCCC1)nn2C` [compound 121, N-(6-((1H-pyrazol-1-yl)methyl)-4-methoxy-1-methyl-1H-indazol-3-yl)-1-cyclohexylmethanesulfonamide], the IC50 is 10 to 20 µM.
For `COc1cc(Cn2cccn2)cc2c1c(NS(=O)(=O)c1ccccc1F)nn2C` [compound 122, N-(6-((1H-pyrazol-1-yl)methyl)-4-methoxy-1-methyl-1H-indazol-3-yl)-2-fluorobenzenesulfonamide], the IC50 fell in the range of 20 to 50 µM.
For the molecule `COc1cccc(OC)c1S(=O)(=O)Nc1nn(C)c2cc(Cn3cccn3)cc(OC)c12` [compound 123, N-(6-((1H-pyrazol-1-yl)methyl)-4-methoxy-1-methyl-1H-indazol-3-yl)-2,6-dimethoxybenzenesulfonamide], the half-maximal inhibitory concentration (IC50) was in the range of 10 to 20 µM.
As for `COc1cc(Cn2cccn2)cc2[nH]nc(NS(=O)(=O)c3ccccc3F)c12` [compound 124, N-(6-((1H-pyrazol-1-yl)methyl)-4-methoxy-1H-indazol-3-yl)-2-fluorobenzenesulfonamide], the IC50 fell in the range of 20 to 50 µM.
Regarding `COc1cccc(OC)c1S(=O)(=O)Nc1n[nH]c2cc(Cn3cccn3)cc(OC)c12` [compound 125, N-(6-((1H-pyrazol-1-yl)methyl)-4-methoxy-1H-indazol-3-yl)-2,6-dimethoxybenzenesulfonamide], the IC50 was at most 10 µM.
On the same count and under the same terms, as for `COc1cc(Cn2cc(C#N)cn2)cc2onc(NS(=O)(=O)CC3CCCCC3)c12` [compound 126, N-(6-((4-cyano-1H-pyrazol-1-yl)methyl)-4-methoxybenzo[d]isoxazol-3-yl)-1-cyclohexylmethanesulfonamide], the figure is at most 10 µM.
Turning to `COc1cc(Cn2cccn2)cc2nnc(NS(=O)(=O)CC3CCCCC3)n12` [compound 127, N-(7-((1H-pyrazol-1-yl)methyl)-5-methoxy-[1,2,4]triazolo[4,3-a]pyridin-3-yl)-1-cyclohexylmethanesulfonamide], the IC50 was at most 10 µM.
As to `COc1cc(Cn2ccc(CN)n2)cc2onc(NS(=O)(=O)CC3CCCCC3)c12` [compound 128], the half-maximal inhibitory concentration (IC50) was 20 to 50 µM.
Consider `CCC(=O)NCc1ccn(Cc2cc(OC)c3c(NS(=O)(=O)CC4CCCCC4)noc3c2)n1` [compound 129], for which the IC50 is at most 10 µM.
Turning to `COc1cc(Cn2cc(CN)cn2)cc2onc(NS(=O)(=O)CC3CCCCC3)c12` [compound 130], the IC50 is at most 10 µM.

The test is the same for the next values; noted with them: 60′ pre-incubation; Table 2; read-out: Kat6A biochemical assay: IC50.
Regarding `C=CC(=O)NCc1ccn(Cc2cc(OC)c3c(NS(=O)(=O)Cc4ccccc4)noc3c2)n1` [Synthetic Example 20, N-((1-((4-methoxy-3-((phenylmethyl)sulfonamido)benzo[d]isoxazol-6-yl)methyl)-1H-pyrazol-3-yl)methyl)acrylamide], the 50% inhibitory concentration (IC50) is at most 10 µM.
Take `C=CS(=O)(=O)NCc1ccn(Cc2cc(OC)c3c(NS(=O)(=O)Cc4ccccc4)noc3c2)n1` [Synthetic Example 21, N-((1-((4-methoxy-3-((phenylmethyl)sulfonamido)benzo[d]isoxazol-6-yl)methyl)-1H-pyrazol-3-yl)methyl)ethenesulfonamide]: the IC50 is at most 10 µM.
As for `C#CC(=O)N1Cc2cnn(Cc3cc(OC)c4c(NS(=O)(=O)c5c(OC)cccc5OC)noc4c3)c2C1` [Synthetic Example 25A, 2,6-dimethoxy-N-(4-methoxy-6-((5-propioloyl-5,6-dihydropyrrolo[3,4-c]pyrazol-1(4H)-yl)methyl)benzo[d]isoxazol-3-yl)benzenesulfonamide], the IC50 was at most 10 µM.
For `C#CC(=O)N1Cc2cn(Cc3cc(OC)c4c(NS(=O)(=O)c5c(OC)cccc5OC)noc4c3)nc2C1` [Synthetic Example 25B, 2,6-dimethoxy-N-(4-methoxy-6-((5-propioloyl-5,6-dihydropyrrolo[3,4-c]pyrazol-2(4H)-yl)methyl)benzo[d]isoxazol-3-yl)benzenesulfonamide], the IC50 was at most 10 µM.

The test is the same for the next values; noted with them: 60′ pre-incubation; Table 3; read-out: Kat6A Biochemical assay: IC50.
In the case of `C#CC(=O)N1CCCN(c2cnc(-c3cc(OC)c4c(NS(=O)(=O)c5cc(CC)ccc5OC)noc4c3)s2)CC1` [compound 104, 5-ethyl-2-methoxy-N-(4-methoxy-6-(5-(4-propioloyl-1,4-diazepan-1-yl)thiazol-2-yl)benzo[d]isoxazol-3-yl) benzenesulfonamide], the IC50 is at most 10 µM.
For the molecule `C#CC(=O)N1CCN(c2ncc(-c3cc(OC)c4c(NS(=O)(=O)c5c(OC)cccc5OC)noc4c3)s2)CC1` [compound 106, 2,6-dimethoxy-N-(4-methoxy-6-(2-(4-propioloylpiperazin-1-yl)thiazol-5-yl)benzo[d]isoxazol-3-yl) benzenesulfonamide], the half-maximal inhibitory concentration (IC50) is at most 10 µM.
`C=CS(=O)(=O)NCCOCc1cc(OC)c2c(NS(=O)(=O)c3cc(CC)ccc3OC)noc2c1` [compound 107]: the IC50 was at most 10 µM.
On to `CCS(=O)(=O)NCc1cnn(Cc2cc(OC)c3c(NS(=O)(=O)c4c(OC)cccc4OC)noc3c2)c1` [compound 108], for which the IC50 is at most 10 µM.
As to `C#CC(=O)N1CC[C@H](OCc2cc(OC)c3c(NS(=O)(=O)c4cc(CC)ccc4OC)noc3c2)C1` [compound 109, (S)-5-ethyl-2-methoxy-N-(4-methoxy-6-(((1-propioloylpyrrolidin-3-yl)oxy)methyl)benzo[d]isoxazol-3-yl) benzenesulfonamide], the IC50 was at most 10 µM.
As to `C#CC(=O)N1CC[C@@H](OCc2cc(OC)c3c(NS(=O)(=O)c4cc(CC)ccc4OC)noc3c2)C1` [compound 110, (R)-5-ethyl-2-methoxy-N-(4-methoxy-6-(((1-propioloylpyrrolidin-3-yl)oxy)methyl)benzo[d]isoxazol-3-yl) benzenesulfonamide], the IC50 was at most 10 µM.
For `C#CC(=O)N1CCN(c2cccc(-c3cc(OC)c4c(NS(=O)(=O)NC5CCCCC5)noc4c3)c2)CC1` [compound 111], the IC50 is at most 10 µM.
Consider `C#CC(=O)N1CCN(c2cccc(-c3cc(OC)c4c(NS(=O)(=O)N(C)C5CCCCC5)noc4c3)c2)CC1` [compound 112, 3-[[cyclohexyl(methyl)sulfamoyl]amino]-4-methoxy-6-[3-(4-prop-2-ynoylpiperazin-1-yl)phenyl]-1,2-benzoxazole], for which the IC50 is at most 10 µM.
For `C#CC(=O)N1CCN(c2cccc(-c3cc(OC)c4c(NS(=O)(=O)c5c(OC)cccc5OC)noc4n3)c2)CC1` [compound 113, 2,6-dimethoxy-N-(4-methoxy-6-(3-(4-propioloylpiperazin-1-yl)phenyl)isoxazolo[5,4-b]pyridin-3-yl)benzenesulfonamide], the IC50 was at most 10 µM.
Still for that read-out and setting: as for `C#CC(=O)N1CCN(c2cccc(-c3cc(OC)c4c(NS(=O)(=O)c5cc(CC)ccc5OC)noc4n3)c2)CC1` [compound 114, 25-ethyl-2-methoxy-N-(4-methoxy-6-(3-(4-propioloylpiperazin-1-yl)phenyl)isoxazolo[5,4-b]pyridin-3-yl)benzenesulfonamide], the figure is above 10 µM; as for `C#CC(=O)N1CCN(c2cc(O)cc(-c3cc(OC)c4c(NS(=O)(=O)c5c(OC)cccc5OC)noc4c3)c2)CC1` [compound 115, N-(6-(3-hydroxy-5-(4-propioloylpiperazin-1-yl)phenyl)-4-methoxybenzo[d]isoxazol-3-yl)-2,6-dimethoxybenzenesulfonamide], at most 10 µM.
`CCc1ccc(OC)c(S(=O)(=O)Nc2noc3cc(Cn4cc(CNS(C)(=O)=O)cn4)cc(OC)c23)c1` [compound 116]: the IC50 is at most 10 µM.
For `C#CC(=O)N1CCN(c2cccc(-c3cc(OC)c4c(NS(=O)(=O)CC5CCCCC5)noc4c3)c2)CC1` [compound 117, 1-cyclohexyl-N-(4-methoxy-6-(3-(4-propioloylpiperazin-1-yl)phenyl)benzo[d]isoxazol-3-yl) methanesulfonamide], the IC50 was at most 10 µM.
For the molecule `C#CC(=O)N1CCN(c2csc(-c3cc(OC)c4c(NS(=O)(=O)c5c(OC)cccc5OC)noc4c3)n2)CC1` [compound 118, 2,6-dimethoxy-N-(4-methoxy-6-(4-(4-propioloylpiperazin-1-yl)thiazol-2-yl)benzo[d]isoxazol-3-yl)benzenesulfonamide], the IC50 is at most 10 µM.
For the molecule `C#CC(=O)N1CCN(c2ccnc(-c3cc(OC)c4c(NS(=O)(=O)c5c(OC)cccc5OC)noc4c3)c2)CC1` [compound 119, 2,6-dimethoxy-N-(4-methoxy-6-(4-(4-propioloylpiperazin-1-yl)pyridin-2-yl)benzo[d]isoxazol-3-yl)benzenesulfonamide], the 50% inhibitory concentration (IC50) is at most 10 µM.
Turning to `C#CC(=O)N1CCN(c2cccc(-c3cc4onc(NS(=O)(=O)c5c(OC)cccc5OC)c4cc3C)c2)CC1` [compound 120, 2,6-dimethoxy-N-(5-methyl-6-(3-(4-propioloylpiperazin-1-yl)phenyl)benzo[d]isoxazol-3-yl) benzenesulfonamide], the half-inhibitory concentration (IC50) is at most 10 µM.

For another test, the system named is ZR-75-1. Briefly: In Vitro Cancer Cell Assay (cell viability, Cell Titer Glow, 10 days). The class given is cell-based. Particulars: Homo sapiens; ZR-75-1 cells; Table 2. The protocol: ZR-75-1 and T47D are breast cancer cell lines containing high KAT6A protein expression. Proliferation of these cell lines are inhibited upon treatment with a KAT6A inhibitor. Cell line MCF7 is used as a negative control. MCF7 cells have a low KAT6A protein expression and are not growth inhibited upon treatment with KAT6A inhibitors. WM-1119 is used as a positive control.
1500 cells are seeded per well and incubated overnight at 37° C. and 5% CO2. Cells are treated after 24 hours with a compound (stock solution, 10 mM in DMSO) with 9-10 dilutions and a final DMSO concentration of 0.5%. […] Test compounds are tested like WM-1119. Plates are incubated at 37° C. and 5% CO2 for 10 days. Media is replenished after every alternate day. At day 10, Cell Titer Glow is added to the wells and luminescence is recorded after 10 min incubation. Data are normalized to 100% with DMSO control and subtracting media blank. Cell viability is of the test compounds is measured.
The above procedure can be followed for determining activity in additional cell lines, for example, ZR-75-1, T47D, CHAGOK1 and other cell lines that have high expression of KAT6A. The number of cells used will be optimized based on growth rate of the individual cell lines.
A general note: Cellular ATP, detected with luciferase, serves as a proxy for viable cell number.
Take `C=CC(=O)NCc1ccn(Cc2cc(OC)c3c(NS(=O)(=O)Cc4ccccc4)noc3c2)n1` [Synthetic Example 20, N-((1-((4-methoxy-3-((phenylmethyl)sulfonamido)benzo[d]isoxazol-6-yl)methyl)-1H-pyrazol-3-yl)methyl)acrylamide]: the EC50 is above 10 µM.
The same measure, in the same setting: as for `C=CS(=O)(=O)NCc1ccn(Cc2cc(OC)c3c(NS(=O)(=O)Cc4ccccc4)noc3c2)n1` [Synthetic Example 21, N-((1-((4-methoxy-3-((phenylmethyl)sulfonamido)benzo[d]isoxazol-6-yl)methyl)-1H-pyrazol-3-yl)methyl)ethenesulfonamide], the figure is above 10 µM; as for `C#CC(=O)N1Cc2cnn(Cc3cc(OC)c4c(NS(=O)(=O)c5c(OC)cccc5OC)noc4c3)c2C1` [Synthetic Example 25A, 2,6-dimethoxy-N-(4-methoxy-6-((5-propioloyl-5,6-dihydropyrrolo[3,4-c]pyrazol-1(4H)-yl)methyl)benzo[d]isoxazol-3-yl)benzenesulfonamide], at most 10 µM; as for `C#CC(=O)N1Cc2cn(Cc3cc(OC)c4c(NS(=O)(=O)c5c(OC)cccc5OC)noc4c3)nc2C1` [Synthetic Example 25B, 2,6-dimethoxy-N-(4-methoxy-6-((5-propioloyl-5,6-dihydropyrrolo[3,4-c]pyrazol-2(4H)-yl)methyl)benzo[d]isoxazol-3-yl)benzenesulfonamide], above 10 µM.

The IC50 is the concentration at which inhibition is half-maximal. As usually defined, the EC50 is the concentration at which the effect is half-maximal. A higher EC50 goes with lower potency in that assay.
